Data as given in patent publication US20130040908A1, “SUBSTITUTION DERIVATIVES OF N6-BENZYLADENOSINE-5' -MONOPHOSPHATE, METHODS OF PREPARATION THEREOF, USE THEREOF AS MEDICAMENTS, AND THERAPEUTIC PREPARATIONS CONTAINING THESE COMPOUNDS” (BIOAPEX, S.R.O., priority 2010, published 2013).

Experiments:
[1] = tested on: CEM (T-lymphoblastoid leukemia); assay: Calcein AM cytotoxicity assay, CEM; assay type: cell-based; details: 72 hours
From the text: (§1) Because toxic compounds negatively influence metabolic processes in cells, many standard cytotoxicity assays are based on measurement of metabolisation rate of various artificial substrates. Resulting product is then quantified e.g. by means of spectrometry. The assays can be easily modified for use in 96-well plates. For evaluation of cytotoxic effect of the novel substituted 9-substituted cytokinin derivatives of this invention, a microtiter assay based on quantification of metabolisation of Calcein AM was used. The assay is widely used in drug screening programs and in chemosensitivity testing. In the living cells, Calcein AM is enzymatically hydrolysed and accumulation of resulting calcein is manifested by green fluorescence.
(§2) Normal human fibroblasts BJ were used as a control for routine screening of the compounds. The cells were kept in Nunc/Corning 80 cm^2 plastic bottles and grown in cell culture medium (DMEM containing 5 g/l glucose, 2 mM glutamine, 100 U/ml penicillin, 100 μg/ml streptomycine, 10% fetal bovine serum and sodium hydrogencarbonate), the compounds were prepared according to the procedure of the present invention.
(§3) The cell suspensions were prepared and diluted according to the particular cell type and the expected target cell density (2.500-30.000 cells per well based on cell growth characteristics) and pippetted (80 μl) into 96-well plates. […] Tested compound was added in total volume of 20 μl of water at time zero. Usually, test compound was evaluated at six 3-fold dilutions. […] All drug concentrations were tested in triplicates. […] At the end of incubation period Calcein AM in PBS was added into final concentration of 1 μg/ml. After another 1 hour of incubation fluorescence (FD) was measured with the Labsystem FIA Reader Fluoroscan Ascent (UK). Growth inhibition (GI) was estimated using the following equitation: GI=(mean FDdrug exposed wells−mean FDblank)/(mean FDcontrol wells−mean FDblank)×100%.

[2] = tested on: HL-60 (promyelocytic leukemia); assay: Calcein AM cytotoxicity assay, HL60; assay type: cell-based, human; details: HL60, 72 hours
From the text: as §1, §2, §3

[3] = tested on: K-562 (human erythroleukemia); assay: Calcein AM cytotoxicity assay, K-562; assay type: cell-based; details: K-562, 72 hours
From the text: as §1, §2, §3

Human lymphocytes = assay: Immunosuppressive activity, 3H-thymidine incorporation in concanavalin A activated lymphocytes; assay type: cell-based; details: 72 hours, [3H]-TdR
From the text: One of the most important parameters of specific cellular immunity is the proliferative response of lymphocytes to antigens or polyclonal mitogens. The majority of normal mammalian peripheral lymphocytes comprise resting cells. Antigens or nonspecific polyclonal mitogens have the capacity to activate lymphoid cells and this is accompanied by dramatic changes of intracellular metabolism (mitochondrial activity, protein synthesis, nucleic acids synthesis, formation of blastic cells and cellular proliferation). […] Variety of in vitro assays was developed to measure proliferative response of lymphocytes. The most commonly used is ^3H-thymidine incorporation method.
During cell proliferation, DNA has to be replicated before the cell is divided into two daughter cells. This close association between cell doublings and DNA synthesis is very attractive for assessing cell proliferation. If labelled DNA precursors are added to the cell culture, cells that are about to divide incorporate the labelled nucleotide into their DNA. Traditionally, those assays usually involve the use of radiolabelled nucleosides, particularly tritiated thymidine ([^3H]-TdR). The amount of [^3H]-TdR incorporated into the cellular DNA is quantified by liquid scintillation counting. Human heparinized peripheral blood was obtained from healthy volunteers by cubital vein punction. The blood was diluted in PBS (1:3) and mononuclear cells were separated by centrifugation in Ficoll-Hypaque density gradient (Pharmacia, 1.077 g/ml) at 2200 rpm for 30 minutes. Following centrifugation, lymphocytes were washed in PBS and resuspended in cell culture medium (RMPI 1640, 2 mM glutamine, 100 U/ml penicillin, 100 μg/ml streptomycin, 10% fetal calf serum and sodium bicarbonate).
The cells were diluted at target density of 1.100.000 cells/ml and were added by pipette (180 μl) into 96-well microtiter plates. Four-fold dilutions of the intended test concentration were added at time zero in 20 μl aliquots to the microtiter plate wells. Usually, test compound was evaluated at six 4-fold dilutions. In routine testing, the highest well concentration was 266.7 μM. All drug concentrations were examined in duplicates. All wells with exception of unstimulated controls were activated with 50 of concanavalin A (25 μg/ml). Incubations of cells with test compounds lasted for 72 hours at 37° C., in 5% CO2 atmosphere and 100% humidity. At the end of incubation period, the cells were assayed by using the [^3H]-TdR:
Cell cultures were incubated with 0.5 μCi (20 μl of stock solution 500 μCi/ml per well for 6 hours at 37° C. and 5% CO2. The automated cell harvester was used to lyse cells in water and adsorb the DNA onto glass-fiber filters in the format of microtiter plate. The DNA incorporated [^3H]-TdR was retained on the filter while unincorporated material passes through. The filters were dried at room temperature overnight, sealed into a sample bag with 10-12 ml of scintillant. The amount of [^3H]-TdR present in each filter (in cpm) was determined by scintillation counting in a Betaplate liquid scintillation counter. The effective dose of immunosuppressant (ED) was calculated using the following equation: ED=(CCPMdrug exposed well/mean CCPMcontrol wells)×100%. The ED50 value, the drug concentration inhibiting proliferation of 50% of lymphocytes, was calculated from the obtained dose response curves.

MCF-7 (breast carcinoma) = assay: Calcein AM cytotoxicity assay, MCF7; assay type: cell-based; details: MCF7, 72 hours
From the text: as §1, §2, §3

SMILES | GI50 [1] | GI50 [2] | GI50 [3] | Human lymphocytes ED50 (Human lymphocytes) | GI50 (MCF-7 (breast carcinoma))
O=P(O)(O)OC[C@H]1O[C@@H](n2cnc3c(NCc4ccc(F)cc4Cl)ncnc32)[C@H](O)[C@@H]1O [2-chloro-4-fluorobenzylamino, 6-(2-chloro-4-fluorobenzylamino)purine riboside-5′-monophosphate] | 12.7 µM | 7.9 µM | 9.6 µM | – | –
O=P(O)(O)OC[C@H]1O[C@@H](n2cnc3c(NCc4cccc(Cl)c4O)ncnc32)[C@H](O)[C@@H]1O [2-hydroxy-3-chlorobenzylamino, 6-(2-hydroxy-3-chlorobenzylamino)purine riboside-5′-monophosphate] | – | – | – | 3.2 µM | –
COc1ccc(CNc2ncnc3c2ncn3[C@@H]2O[C@H](COP(=O)(O)O)[C@@H](O)[C@H]2O)c(O)c1 [2-hydroxy-4-methoxybenzylamino, 6-(2-hydroxy-4-methoxybenzylamino)purine riboside-5′-monophosphate] | – | – | – | 2.1 µM | –
O=P(O)(O)OC[C@H]1O[C@@H](n2cnc3c(NCc4ccc(O)c(O)c4)ncnc32)[C@H](O)[C@@H]1O [3,4-dihydroxybenzylamino, 6-(3,4-dihydroxybenzylamino)purine riboside-5′-monophosphate] | – | – | – | 9.4 µM | –
O=P(O)(O)OC[C@H]1O[C@@H](n2cnc3c(NCc4ccccc4F)ncnc32)[C@H](O)[C@@H]1O [Compound 1, 6-(2-fluorobenzylamino)purine riboside-5′-monophosphate] | 3.9 µM | 3.3 µM | 31.7 µM | 6.3 µM | –
O=P(O)(O)OC[C@H]1O[C@@H](n2cnc3c(NCc4ccccc4Cl)ncnc32)[C@H](O)[C@@H]1O [Compound 4, 6-(2-chlorobenzylamino)purine riboside-5′-monophosphate] | 1.9 µM | 1.4 µM | 56 µM | 8.7 µM | –
O=P(O)(O)OC[C@H]1O[C@@H](n2cnc3c(NCc4cccc(Cl)c4)ncnc32)[C@H](O)[C@@H]1O [Compound 5, 6-(3-chlorobenzylamino)purine riboside-5′-monophosphate] | 1.5 µM | 0.5 µM | 23.4 µM | 3.2 µM | –
O=P(O)(O)OC[C@H]1O[C@@H](n2cnc3c(NCc4ccc(Cl)cc4)ncnc32)[C@H](O)[C@@H]1O [Compound 6, 6-(4-chlorobenzylamino)purine riboside-5′-monophosphate] | 4.9 µM | – | 12.6 µM | 3.3 µM | –
O=P(O)(O)OC[C@H]1O[C@@H](n2cnc3c(NCc4ccccc4Br)ncnc32)[C@H](O)[C@@H]1O [Compound 7, 6-(2-bromobenzylamino)purine riboside-5′-monophosphate] | 2.3 µM | 5.9 µM | 9.7 µM | – | 45.6 µM
O=P(O)(O)OC[C@H]1O[C@@H](n2cnc3c(NCc4cccc(Br)c4)ncnc32)[C@H](O)[C@@H]1O [Compound 8, 6-(3-bromoobenzylamino)purine riboside-5′-monophosphate] | 5.1 µM | 4.2 µM | 19.1 µM | – | –
O=P(O)(O)OC[C@H]1O[C@@H](n2cnc3c(NCc4ccc(Br)cc4)ncnc32)[C@H](O)[C@@H]1O [Compound 9, 6-(4-bromobenzylamino)purine riboside-5′-monophosphate] | 17.6 µM | 41.3 µM | 49.9 µM | – | –
Cc1ccccc1CNc1ncnc2c1ncn2[C@@H]1O[C@H](COP(=O)(O)O)[C@@H](O)[C@H]1O [Compound 12, 6-(2-methylbenzylamino)purine riboside-5′-monophosphate] | 11.4 µM | 3.1 µM | – | 7.3 µM | 144 µM
COc1cccc(CNc2ncnc3c2ncn3[C@@H]2O[C@H](COP(=O)(O)O)[C@@H](O)[C@H]2O)c1 [Compound 16, 6-(3-methoxybenzylamino)purine riboside-5′-monophosphate] | 4.6 µM | 5.1 µM | 122 µM | – | 48.1 µM
O=P(O)(O)OC[C@H]1O[C@@H](n2cnc3c(NCc4ccc(O)cc4)ncnc32)[C@H](O)[C@@H]1O [Compound 23, 6-(4-hydroxybenzylamino)purine riboside-5′-monophosphate] | 19.4 µM | 9.7 µM | – | – | –
O=P(O)(O)OC[C@H]1O[C@@H](n2cnc3c(NCc4ccc(Cl)cc4Cl)ncnc32)[C@H](O)[C@@H]1O [Compound 24] | 81.2 µM | 72.4 µM | 81.5 µM | – | 122 µM
COc1cccc(CNc2ncnc3c2ncn3[C@@H]2O[C@H](COP(=O)(O)O)[C@@H](O)[C@H]2O)c1OC [Compound 31, 6-(2,3-dimethoxybenzylamino)purine riboside-5′-monophosphate] | – | 91 µM | – | – | –
COc1ccc(CNc2ncnc3c2ncn3[C@@H]2O[C@H](COP(=O)(O)O)[C@@H](O)[C@H]2O)c(OC)c1 [Compound 32, 6-(2,4-dimethoxybenzylamino)purine riboside-5′-monophosphate] | – | 41 µM | – | – | –
COc1cc(CNc2ncnc3c2ncn3[C@@H]2O[C@H](COP(=O)(O)O)[C@@H](O)[C@H]2O)cc(OC)c1 [Compound 34, 6-(3,5-dimethoxybenzylamino)purine riboside-5′-monophosphate] | – | 19.8 µM | – | – | –
O=P(O)(O)OC[C@H]1O[C@@H](n2cnc3c(NCc4ccc(F)cc4F)ncnc32)[C@H](O)[C@@H]1O [Compound 36, 6-(2,4-difluorobenzylamino)purine riboside-5′-monophosphate] | 4.9 µM | 2.8 µM | 5.9 µM | – | –
O=P(O)(O)OC[C@H]1O[C@@H](n2cnc3c(NCc4cc(F)cc(F)c4)ncnc32)[C@H](O)[C@@H]1O [Compound 37, 6-(3,5-difluorobenzylamino)purine riboside-5′-monophosphate] | 21.1 µM | 6.9 µM | – | – | –
O=P(O)(O)OC[C@H]1O[C@@H](n2cnc3c(NCc4ccc(F)c(F)c4F)ncnc32)[C@H](O)[C@@H]1O [Compound 38, 6-(2,3,4-trifluorobenzylamino)purine riboside-5′-monophosphate] | 58.6 µM | 11.3 µM | – | – | –
O=P(O)(O)OC[C@H]1O[C@@H](n2cnc3c(NCc4c(F)ccc(F)c4F)ncnc32)[C@H](O)[C@@H]1O [Compound 40, 6-(2,3,6-trifluorobenzylamino)purine riboside-5′-monophosphate] | – | 11.3 µM | – | – | –
O=P(O)(O)OC[C@H]1O[C@@H](n2cnc3c(NCc4ccc(F)c(Cl)c4)ncnc32)[C@H](O)[C@@H]1O [Compound 41, 6-(3-chloro-4-fluorobenzylamino)purine riboside-5′-monophosphate] | 1.4 µM | 3.1 µM | 4.3 µM | – | 99.1 µM
